Measured values published in US8946260B2, “17α-hydroxylase/C17,20-lyase inhibitors” (Novartis AG, priority 2010, dated 2015).

Target: T1, recombinant Human CYP17 enzyme (17-20 lyase) (Homo sapiens, UniProt P05093)
T1 construct: made in house; host or cells: A549 cells, adenoviral expression system; purified cell membrane preparations
T1 sequence (P05093 1-508): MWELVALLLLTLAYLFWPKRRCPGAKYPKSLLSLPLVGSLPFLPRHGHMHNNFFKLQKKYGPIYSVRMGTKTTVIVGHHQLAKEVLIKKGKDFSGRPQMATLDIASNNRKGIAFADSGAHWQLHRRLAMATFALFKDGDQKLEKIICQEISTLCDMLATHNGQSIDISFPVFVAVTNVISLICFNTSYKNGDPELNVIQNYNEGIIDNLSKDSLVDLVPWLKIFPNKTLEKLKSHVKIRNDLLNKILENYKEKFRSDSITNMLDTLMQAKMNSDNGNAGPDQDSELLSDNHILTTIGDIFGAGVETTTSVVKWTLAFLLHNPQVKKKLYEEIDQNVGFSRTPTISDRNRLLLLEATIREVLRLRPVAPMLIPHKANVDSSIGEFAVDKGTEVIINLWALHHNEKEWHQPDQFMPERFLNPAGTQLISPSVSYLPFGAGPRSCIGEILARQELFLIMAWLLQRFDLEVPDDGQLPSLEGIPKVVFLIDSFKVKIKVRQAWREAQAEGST
Assay: Cytochrome P450, 17-20 lyase (CYP17-lyase) assay, 17-α-hydroxy pregnenolone [21-3H] as substrate
Format: biochemical
Conditions: at 10 μM; read-out: hCYP17 Lyase % Inh
Excerpt: 1) Cytochrome P450, 17-20 Lyase (CYP17-Lyase) Assay Development Using Recombinant Human CYP17 Enzyme and 17-α-Hydroxy Pregnenolone [21-3H] as the Substrate.
Cytochrome P450, 17-α-Hydroxylase, 17-20 lyase (CYP17) is a multi functional enzyme that plays a key role in the biosynthesis of steroid hormones. It catalyses both conventional hydroxylation and also the carbon-carbon bond cleavage reactions (Peter Lee-Robichaud et al, Biochem. J, (1997) 321, 857-63). In the hydroxylation reaction, it converts progesterone and pregnenolone to the corresponding hydroxylated products 17-α-hydroxy progesterone and 17-α-hydroxy pregnenolone. In the lyase reaction, it catalyzes the conversion of these hydroxylated substrates to Androstenedione and Dehydroepiandrosterone (DHEA) respectively. In the Cyp17 lyase assay described here, the conversion of 17-α-hydroxy pregnenolone to Dehydroepiandrosterone and acetic acid is being monitored.
Assay method was adopted from a published protocol with some modifications to suit our requirements (Dmitry N Grigoryev et al, Analytical Biochemistry, (1999) 267, 319-330). The conversion of 17-α-hydroxy pregnenolone to Dehydroepiandrosterone is accompanied by the release of acetic acid. In the Cyp17 lyase assay, 17-α-hydroxy pregnenolone labeled with tritium (3H) at position 21 is used as the substrate. Chloroform extraction removes the radioactive steroids and acetic acid is taken into aqueous layer. The tritiated acetic acid released in the assay thus extracted is quantified to determine the enzyme activity.
Initial buffer conditions were, 50 mM Phosphate buffer, pH 7.5 was used as the starting buffer for Cyp17 lyase activity based on the data published in US patent publication No. US2004/0198773 A1. […] Human Cyp 17 gene was cloned and expressed in Adenoviral expression system in A549 cell lines. The purified cell membrane preparations were used as the source for Human CYP17 enzyme. Total protein concentration: 8 mg/mL.
For routine screening, the assay was set up with 16 μg of enzyme in 50 μL reaction volume. 17α-hydroxy pregnenolone [21-3H] was added to a final concentration of 0.25 μM. NADPH is used at a final concentration of 4.2 mM. Total reaction volume was made up to 50 μL with 50 mM Phosphate buffer pH 7.5. The reaction mixture was incubated at room temperature for 90 minutes with gentle shaking. The reaction was stopped by the addition of 100 μL of buffer. 500 μL of 5% freshly prepared activated charcoal was added to the solution and mixed well by vortexing. The samples were centrifuged at 17568×g for 5 minutes. (14000 rpm). The supernatant was carefully transferred to fresh tube and 1.3 mL of scintillation fluid was added, mixed by vortexing.
The radioactivity was measured in a 1450 MicroBeta TriLux™ scintillation counter from Wallac-Perkin Elmer®, USA. The measurements were carried out in 2.0 mL Eppendorf™ tubes. Each tube was counted for 1 minute. The amount of tritiated acetic acid released is proportional to the lyase activity. Percent lyase activity in presence of inhibitor was calculated using the formula given below.
[formula] • Sample: Enzyme reaction in presence of inhibitor. • Positive control: Enzyme reaction without inhibitor but containing DMSO at 1% final concentration. • Blank—Contains all reagents except enzyme. • % Inhibition=100%−% Lyase activity
For IC50 determination, the % inhibition was plotted as a function of inhibitor concentration. The data was fitted to sigmoidal equation using Graphpad Prism® software IV to generate IC50 values.

| Compound | inhibition at 10 µM [%] |
| --- | --- |
| Cc1ccncc1-n1ccc2ccc(NC(=O)C3CC3)cc2c1=O [Example 24A, Cyclopropanecarboxylic acid [2-(4-methyl-pyridin-3-yl)-1-oxo-1,2-dihydro-isoquinolin-7-yl]-amide] | 53 |
| Cc1ccncc1N1CCc2ccc(Nc3ccccc3)cc2C1=O [Example 30A, 2-(4-methylpyridin-3-yl)-7-(phenylamino)-3,4-dihydroisoquinolin-1(2H)-one] | 41 |
| Cc1ccncc1N1CCc2cc(Cl)c(Cl)cc2C1=O [Example 41A, 6,7-dichloro-2-(4-methylpyridin-3-yl)-3,4-dihydroisoquinolin-1 (2H)-one] | 10 |
| COc1cc2c(cc1OC)C(=O)N(c1cnccc1C)CC2 [Example 40A, 6,7-Dimethoxy-2-(4-methyl-pyridin-3-yl)-3,4-dihydro-2H-isoquinolin-1-one] | 12 |
| Cc1ccncc1-n1ccc2ccc(C(F)(F)F)cc2c1=O [Example 29A, 2-(4-Methyl-pyridin-3-yl)-7-trifluoromethyl-2H-isoquinolin-1-one] | 66 |
| Cc1ccncc1N1CCc2c(Cl)cccc2C1=O [Example 12A, 5-Chloro-2-(4-methyl-pyridin-3-yl)-3,4-dihydro-2H-isoquinolin-1-one] | 64 |
| COc1ccc(F)c2c1C(=O)N(c1cnccc1C)CC2 [Example 44A, 5-fluoro-8-methoxy-2-(4-methylpyridin-3-yl) 3,4-dihydroisoquinolin-1(2H)-one] | 8 |

Same assay, conditions: human CYP17 lyase; substrate 0.25 μM; room temperature, 90 minutes; read-out: Lyase IC 50 nM Human

| Compound | IC50 [nM] |
| --- | --- |
| O=C1c2cc(Cl)c(F)cc2CCN1c1cnccc1C1CC1 [Example 82A, 7-chloro-2-(4-cyclopropylpyridin-3-yl)-6-fluoro-3,4-dihydroisoquinolin-1(2H)-one] | 3 |
| Cc1ccncc1N1CCc2ccc(O)cc2C1=O [Example 27A, 7-Hydroxy-2-(4-methyl-pyridin-3-yl)-3,4-dihydro-2H-isoquinolin-1-one] | 83 |
| Cc1ccncc1N1CCc2cc(O)ccc2C1=O [Example 11B, 6-Hydroxy-2-(4-methyl-pyridin-3-yl)-3,4-dihydro-2H-isoquinolin-1-one] | 139 |
| O=C1c2cc(C(F)(F)F)ccc2CCN1c1cnccc1CNC1CC1 [Example 53A, 2-(4-((cyclopropylamino)methyl)pyridin-3-yl)-7-(trifluoromethyl)-3,4-dihydroisoquinolin-1(2H)-one] | 50 |
| Cc1ccncc1N1CCc2ccc(-c3ccc(F)cc3)cc2C1=O [Example 3A, 7-(4-Fluoro-phenyl)-2-(4-methyl-pyridin-3-yl)-3,4-dihydro-2H-isoquinolin-1-one] | 1210 |
| O=C1c2cc(C(F)(F)F)ccc2CCN1c1cncc2ccccc12 [Example 19A, 7-Trifluoromethyl-3,4-dihydro-[2,4′]biisoquinolinyl-1-one] | 44 |
| N#Cc1cc2c(cc1Cl)C(=O)N(c1cnccc1C1CC1)CC2 [Example 91A, 7-chloro-2-(4-cyclopropylpyridin-3-yl)-1-oxo-1,2,3,4-tetrahydroisoquinoline-6-carbonitrile] | 11 |
| O=C1c2cc3[nH]ncc3cc2CCN1c1cnccc1C(F)(F)F [Example 72A, 7-(4-(trifluoromethyl)pyridin-3-yl)-6,7-dihydro-1H-pyrazolo[4,3-g]isoquinolin-8(5H)-one] | 730 |
| Cc1ccncc1N1CCc2ccc(OCC3CC3)cc2C1=O [Example 31A, 7-(cyclopropylmethoxy)-2-(4-methylpyridin-3-yl)-3,4-dihydroisoquinolin-1 (2H)-one] | 727 |
| O=C1c2cc(C(F)(F)F)ccc2CCN1c1cncc(F)c1 [Example 18A, 2-(5-Fluoro-pyridin-3-yl)-7-trifluoromethyl-3,4-dihydro-2H-isoquinolin-1-one] | 334 |
| Cc1ccncc1N1CCc2ccncc2C1=O [Example 65A, 2-(4-methylpyridin-3-yl)-3,4-dihydro-2,7-naphthyridin-1(2H)-one] | 1140 |
| Cc1ccncc1N1CCc2cc(F)c(Cl)cc2C1=O [Example 84A, 7-chloro-6-fluoro-2-(4-methylpyridin-3-yl)-3,4-dihydroisoquinolin-1(2H)-one] | 5.3 |
| Cc1ccncc1N1CCc2ccc(C(F)(F)F)c(F)c2C1=O [Example 47A, 8-Fluoro-2-(4-methyl-pyridin-3-yl)-7-trifluoromethyl-3,4-dihydro-2H-isoquinolin-1-one] | 12 |
| CCc1ccncc1N1CCc2ccc(Cl)cc2C1=O [Example 75A, 7-chloro-2-(4-ethylpyridin-3-yl)-3,4-dihydroisoquinolin-1(2H)-one] | 8 |
| O=C1c2cc(I)c(F)cc2CCN1c1cnccc1C(F)(F)F [Example 79A, 6-fluoro-7-iodo-2-(4-(trifluoromethyl)pyridin-3-yl)-3,4-dihydroisoquinolin-1(2H)-one] | 19 |
| Cc1ccncc1N1CCc2ccccc2C1=O [Example 23A, 2-(4-Methyl-pyridin-3-yl)-3,4-dihydro-2H-isoquinolin-1-one] | 227 |
| CCn1c2c(c3ccccc31)CCN(c1cnccc1C)C2=O [Example 38A, 9-ethyl-2-(4-methylpyridin-3-yl)-2,3,4,9-tetrahydro-1H-pyrido[3,4-b]indol-1-one] | 23 |
| Cc1ccncc1N1CCc2ccc(F)c(Cl)c2C1=O [Example 34A, 8-chloro-7-fluoro-2-(4-methylpyridin-3-yl)-3,4-dihydroisoquinolin-1(2H)-one] | 149 |
| Cc1ccncc1N1CCc2cc(C#N)c(Cl)cc2C1=O [Example 88A, 7-chloro-2-(4-methylpyridin-3-yl)-1-oxo-1,2,3,4-tetrahydroisoquinoline-6-carbonitrile] | 11 |
| O=C1c2c(sc3ccccc23)CCN1c1cnccc1C1CC1 [Example 76A, 2-(4-cyclopropylpyridin-3-yl)-3,4-dihydrobenzo[4,5]thieno[3,2-c]pyridin-1(2H)-one] | 4.2 |
| O=C1c2c(sc3ccc(F)cc23)CCN1c1cnccc1C(F)(F)F [Example 57A, 8-Fluoro-2-(4-trifluoromethylpyridine-3-yl)-3,4-dihydro-2H-benzo[4,5]thieno[3,2-c]pyridin-1-one] | 548 |
| Cc1ccncc1N1CCc2cc3cn[nH]c3cc2C1=O [Example 69A, 7-(4-methylpyridin-3-yl)-6,7-dihydro-1H-pyrazolo[4,3-g]isoquinolin-8(5H)-one] | 93 |
| O=C1c2c(sc3ccccc23)CCN1c1cnccc1C(F)(F)F [Example 58A, 2-(4-trifluoromethylpyridine-3-yl)-3,4-dihydro-2H-benzo[4,5]thieno[3,2-c]pyridin-1-one] | 218 |
| O=C1c2cc(Cl)c(F)cc2CCN1c1cnccc1C(F)(F)F [Example 80A, 7-chloro-6-fluoro-2-(4-(trifluoromethyl)pyridin-3-yl)-3,4-dihydroisoquinolin-1(2H)-one] | 173 |
| Cc1ccncc1N1CCc2ccc(OC(F)(F)F)cc2C1=O [Example 51A, 2-(4-Methylpyridin-3-yl)-7-(trifluoromethoxy)-3,4-dihydroisoquinolin-1(2H)-one] | 22 |
